Literature values as cited in patent US20100239682A1, “COLONIC DELIVERY OF ANTIMICROBIAL AGENTS” (priority 2007, published 2010).

What was measured:
[1] = human volunteers, high doses
Enterobacteriaceae = settings: human volunteers, oral, different dosages

In the case of colistin [Colimycin], the “tolerance at the gastric level” value [1] is given as “very poorly tolerated” and the “effectiveness at achieving selective decontamination” value (Enterobacteriaceae) is given as “only high dosages of Colimycin were effective”.
